Reference: patent US20090018111A1, “Novel Antimicrobial Medicament” (priority 2004, published 2009)
Where two headings read alike, the source gives them in different places.

Legend:
Assay in all cases: Sensitivity test (agar dilution)
[1] = tested on: S. aureus MS94088 (hetero-MRSA); format: cell-based, Staphylococcus aureus; conditions: Staphylococcus aureus, MRSA
Description: (§1) The antibacterial activities were tested against various 18 bacteria (27 standard strains) which are representative bacteria caused clinically infectious disease (Staphylococcus aureus 3 strains, Staphylococcus epidermidis 1 strain, Micrococcus luteus 1 strain, Streptococcus pyogenes 1 strain, Enterococcus faecalis 1 strain, Enterococcus faecium 1 strain, Bacillus subtilis 1 strain, Escherichia coli 3 strains, Klebsiella pneumoniae 1 strain, Proteus mirabilis 1 strain, Proteus vulgaris 2 strains, Pseudomonas aeruginosa 3 strains, Serratia marcescens 2 strains, Enterobacter aerogenes 1 strain, Stenotrophomonas maltophilia 1 strain, Enterobacter cloacae 1 strain, Citrobacter freundii 1 strain, Moraxella catarrhalis 2 strains).
(§2) According to the standard method of Japan Chemotherapeutic Society (Chemotherapy, vol. […], p 76-79 (1981)) the test was carried out using the agar dilution method. After dissolving test samples in distilled water, agar medium containing the test samples was prepared in such a manner that the final concentration became twice serial dilution by pouring serially diluted combination drug solution or a single drug solution into agar medium. As agar medium was used Mueller Hinton Agar medium (MHA). Then, each strain was cultivated over night at 37° C. in an incubator and suspended in buffered saline solution with gelatin (BSG) in the concentration of about 10^6 CFU/ml. The suspension (about 5 μl) containing test strains was inoculated to the medium containing the test samples by Micro Planter.
(§3) When the sample is subjected to sensitivity test, this mixed solution was diluted by twice serial dilution method.
(§4) Furthermore, when the drug is solely used, each test sample was used as it is, and diluted by twice serial dilution method from the maximum concentration to the minimum concentration.
(§5) FIC index based on MIC value was calculated. […] Namely, when FIC index calculated by the following formula is equal or less than 1, the enhanced effect of the combination drug in said ratio is considered as positive. When FIC index is over 1, the enhanced effect of the combination drug in said ratio is considered as negative.
(§6) Formula of FIC index: FIC index=(MIC of Drug A in combination/MIC of Drug A alone)+(MIC of Drug B in combination/MIC of Drug B alone) N.C. in tables means being not calculated.

[2] = tested on: S. aureus SP-7928 (homo-MRSA); format: cell-based, Staphylococcus aureus
Description: as §1, §2, §3, §4, §5, §6

[3] = tested on: S. aureus 209P; format: cell-based, Staphylococcus aureus; conditions: for MIC: Staphylococcus aureus, 209P
Description: as §1, §2, §3, §4, §5, §6

[4] = tested on: E. cloacae GN7471; format: cell-based, Enterobacter cloacae; conditions: Enterobacter cloacae, E. cloacae GN7471, read-out: MIC concomitant
Description: as §1, §2, §3, §4, §5, §6

[5] = Concomitant (IPM:SM = 1:1), read-out: MIC
[6] = Concomitant (MEPM:SM = 1:1), read-out: MIC
[7] = Concomitant (MEPM:SM = 1:2), read-out: MIC
[8] = Concomitant (MEPM:SM = 1:4), read-out: MIC
[9] = Concomitant drug (MEPM:SM = 2:1), read-out: MIC

Structure (SMILES): C[C@H]1C=C(c2csc(SC3=C(C(=O)O)N4C(=O)[C@H]([C@@H](C)O)[C@H]4[C@H]3C)n2)CN1 [SM, (4R,5S,6S)-6-[(1R)-1-Hydroxyethyl]-4-methyl-3-({4-[(5S)-5-methyl-2,5-dihydro-1H-pyrrol-3-yl]-1,3-thiazol-2-yl}sulfanyl)-7-oxo-1-azabicyclo[3.2.0]hept-2-ene-2-carboxylic acid]
- MIC ([1]; Concomitant (AZT:SM = 1:1), S. aureus MS94088 (hetero-MRSA), read-out: MIC concomitant): 0.25 µg/mL
- MIC ([1]; Concomitant (BIPM:SM = 1:1), S. aureus MS94088 (hetero-MRSA), read-out: MIC concomitant): 0.25 µg/mL
- MIC ([1]; Concomitant (CAZ:SM = 1:1), S. aureus MS94088 (hetero-MRSA), read-out: MIC concomitant): 0.25 µg/mL
- MIC ([1]; Concomitant (CPFX:SM = 1:1), S. aureus MS94088 (hetero-MRSA), read-out: MIC concomitant): 0.125 µg/mL
- MIC ([1]; Concomitant (DRPM:SM = 1:1), S. aureus MS94088 (hetero-MRSA), read-out: MIC concomitant): 0.25 µg/mL
- MIC [1, 5]: 0.25 µg/mL
- MIC [1, 6]: 0.25 µg/mL
- MIC [1, 7]: 0.25 µg/mL
- MIC [1, 8]: 0.25 µg/mL
- MIC ([1]; Concomitant (PAPM:SM = 1:1), S. aureus MS94088 (hetero-MRSA), read-out: MIC concomitant): 0.25 µg/mL
- MIC ([1]; Concomitant (PIPC:SM = 1:1), S. aureus MS94088 (hetero-MRSA), read-out: MIC concomitant): 0.125 µg/mL
- MIC [1, 9]: 0.25 µg/mL
- MIC ([1]; alone, read-out: MIC): 0.25 µg/mL
- MIC ([1]; drug alone, S. aureus MS94088 (hetero-MRSA), read-out: MIC alone): 0.25 µg/mL
- MIC ([2]; Staphylococcus aureus, MRSA, Concomitant (AZT:SM = 1:1), S. aureus SP-7928 (homo-MRSA), read-out: MIC concomitant): 2 µg/mL
- MIC ([2]; Staphylococcus aureus, MRSA, Concomitant (BIPM:SM = 1:1), S. aureus SP-7928 (homo-MRSA), read-out: MIC concomitant): 2 µg/mL
- MIC ([2]; Staphylococcus aureus, MRSA, Concomitant (CAZ:SM = 1:1), S. aureus SP-7928 (homo-MRSA), read-out: MIC concomitant): 1 µg/mL
- MIC ([2]; Staphylococcus aureus, MRSA, Concomitant (CPFX:SM = 1:1), S. aureus SP-7928 (homo-MRSA), read-out: MIC concomitant): 0.25 µg/mL
- MIC ([2]; Staphylococcus aureus, MRSA, Concomitant (DRPM:SM = 1:1), S. aureus SP-7928 (homo-MRSA), read-out: MIC concomitant): 1 µg/mL
- MIC ([2]; Staphylococcus aureus, MRSA, Concomitant (IPM:SM = 1:1), read-out: MIC): 2 µg/mL
- MIC ([2]; Staphylococcus aureus, MRSA, Concomitant (MEPM:SM = 1:1), read-out: MIC): 1 µg/mL
- MIC ([2]; Staphylococcus aureus, MRSA, Concomitant (MEPM:SM = 1:2), read-out: MIC): 2 µg/mL
- MIC ([2]; Staphylococcus aureus, MRSA, Concomitant (MEPM:SM = 1:4), read-out: MIC): 2 µg/mL
- MIC ([2]; Staphylococcus aureus, MRSA, Concomitant (PAPM:SM = 1:1), S. aureus SP-7928 (homo-MRSA), read-out: MIC concomitant): 2 µg/mL
- MIC ([2]; Staphylococcus aureus, MRSA, Concomitant (PIPC:SM = 1:1), S. aureus SP-7928 (homo-MRSA), read-out: MIC concomitant): 1 µg/mL
- MIC ([2]; Staphylococcus aureus, MRSA, Concomitant drug (MEPM:SM = 2:1), read-out: MIC): 1 µg/mL
- MIC ([2]; Staphylococcus aureus, MRSA, alone, read-out: MIC): 1 µg/mL
- MIC ([2]; Staphylococcus aureus, MRSA, drug alone, S. aureus SP-7928 (homo-MRSA), read-out: MIC alone): 2 µg/mL
- MIC ([2]; alone): 2 µg/mL
- MIC alone ([2]; drug alone, S. aureus SP-7928 (homo-MRSA)): 1 µg/mL
- MIC ([3]; Concomitant (AZT:SM = 1:1), S. aureus 209P, read-out: MIC concomitant): 0.008 µg/mL
- MIC ([3]; Concomitant (BIPM:SM = 1:1), S. aureus 209P, read-out: MIC concomitant): 0.008 µg/mL
- MIC ([3]; Concomitant (CAZ:SM = 1:1), S. aureus 209P, read-out: MIC concomitant): 0.004 µg/mL
- MIC ([3]; Concomitant (CPFX:SM = 1:1), S. aureus 209P, read-out: MIC concomitant): 0.008 µg/mL
- MIC ([3]; Concomitant (DRPM:SM = 1:1), S. aureus 209P, read-out: MIC concomitant): 0.004 µg/mL
- MIC [3, 5]: 0.004 µg/mL
- MIC [3, 6]: ≤ 0.016 µg/mL
- MIC [3, 7]: ≤ 0.031 µg/mL
- MIC [3, 8]: ≤ 0.063 µg/mL
- MIC ([3]; Concomitant (PAPM:SM = 1:1), S. aureus 209P, read-out: MIC concomitant): 0.004 µg/mL
- MIC ([3]; Concomitant (PIPC:SM = 1:1), S. aureus 209P, read-out: MIC concomitant): 0.004 µg/mL
- MIC [3, 9]: ≤ 0.008 µg/mL
- MIC ([3]; alone, read-out: MIC): ≤ 0.008 µg/mL
- MIC ([3]; drug alone, S. aureus 209P, read-out: MIC alone): 0.008 µg/mL
- MIC alone ([3]; drug alone, S. aureus 209P): 0.004 µg/mL
- MIC ([4]; GN7471, Concomitant (AZT:SM = 1:1)): 4 µg/mL
- MIC ([4]; GN7471, Concomitant (BIPM:SM = 1:1)): 0.063 µg/mL
